Patent publication US7414042B2, “Method and composition for selectively inhibiting melanoma” (The Board of Trustees of The University of Illinois, priority 1995, dated 2008)
In brackets after ≈: the same amount, converted by molar mass. Read-outs that look alike come from different tables or passages of the source.

Tests used:
[1] = test system: MEL-2 (melanoma); experiment: Cytotoxicity against cultured human melanoma cells (SRB); type: cell-based; settings: three days incubation, SRB, Table 1 and text
Experimental: (§1) The plates were incubated for three days. […] Dose response studies were performed to generate ED50 values.

[2] = test system: human melanoma and nonmelanoma cancer cell lines; experiment: Cytotoxicity profile across the panel of human cancer cell lines; settings: Table 1 panel
Experimental: (§2) In the following Table 1, the extracted betulinic acid and the other pure compounds were tested for cycotoxity against the following cultured human cell lines: A431 (squamous cells), BC-1 (breast), COL-2 (colon), HT-1080 (sarcoma), KB (human oral epidermoid carcinoma), LNCaP (prostate), LU-1 (lung), MEL-2 (melanoma), U373 (glioma) and ZR-75-1 (breast).
(§3) Cytotoxicity of the crude extracts and purified compounds was determined in a number of cultured human cancer cell lines. The cells were cultured in appropriate media and under standard conditions. To maintain logarithmic growth, the media were changed 24 hours prior to cytotoxic assays. On the day of the assay, the cells were harvested by trypsinization, counted, diluted in media, and added to 96-well plates containing test compounds dissolved in DMSO; the final DMSO concentration was 0.05%.
(§4) The plates were incubated for three days. Following the incubation period, the cells were fixed and stained with sulforhodamine B (SRB) dye. The bound dye was liberated with Tris base, and the OD515 was measured on an ELISA reader. The growth of the betulinic acid-treated cells was determined by the OD515 values, and the growth was compared to the OD515 values of DMSO-treated control cells. Dose response studies were performed to generate ED50 values.
(§5) The biological evaluation of the derivatives focused on the activity against human melanoma cell lines. In particular, the following betulinic acid derivatives were prepared and tested for cytotoxicity profile against human melanoma cell lines and against a number of selected nonmelanoma cell lines.

[3] = test system: ZR-75-1 (breast); experiment: Cytotoxicity against cultured human cancer cells (SRB); type: cell-based; settings: three days incubation, SRB
Experimental: as §1

[4] = test system: KB (human oral epidermoid carcinoma); experiment: as above; type: cell-based; settings: three days incubation, SRB, Table 1
Experimental: as §1

[5] = test system: HT-1080 (sarcoma); experiment: as above; type: cell-based; settings: three days incubation
Experimental: as §1

[6] = test system: U373 (glioma); experiment: as above; type: cell-based; settings: three days incubation, SRB
Experimental: as §1

[7] = test system: LNCaP (prostate); experiment: as above; type: cell-based; settings: three days incubation, SRB
Experimental: as §1

[8] = test system: COL-2 (colon); experiment: as above; type: cell-based; settings: three days incubation, SRB
Experimental: as §1

[9] = test system: A431 (squamous cells); experiment: as above; type: cell-based; settings: three days incubation, SRB
Experimental: as §1

[10] = test system: LU-1 (lung); experiment: as above; type: cell-based; settings: three days incubation
Experimental: as §1

[11] = test system: BC-1 (breast); experiment: as above; type: cell-based; settings: three days incubation, SRB
Experimental: as §1

[12] = test system: human melanoma and nonmelanoma cancer cell lines
Experimental: as §2, §3, §4, §5

Structure (SMILES): CO[C@H](C(=O)[C@@H](O)[C@@H](C)O)[C@@H]1Cc2cc3cc(O[C@H]4C[C@@H](O[C@H]5C[C@@H](O)[C@H](O)[C@@H](C)O5)[C@H](O)[C@@H](C)O4)c(C)c(O)c3c(O)c2C(=O)[C@H]1O[C@H]1C[C@@H](O[C@H]2C[C@@H](O[C@H]3C[C@](C)(O)[C@H](O)[C@@H](C)O3)[C@@H](O)[C@@H](C)O2)[C@H](O)[C@@H](C)O1 [Mithramycin A]
- ED50 MEL-2 [1]: 1.2 µg/mL (≈ 1.11 µM)
- cytotoxic activity profile, cell-type selectivity [2]: relatively intense, nonselective cytotoxic activity
- ED50 ZR 75-1 [3]: 0.2 µg/mL (≈ 0.184 µM)
- ED50 KB [4]: 0.09 µg/mL (≈ 0.0829 µM)
- ED50 HT-1080 [5]: 1.5 µg/mL (≈ 1.38 µM)
- ED50 U373 [6]: 0.04 µg/mL (≈ 0.0369 µM)
- ED50 LNCaP [7]: 0.05 µg/mL (≈ 0.0461 µM)
- ED50 COL-2 [8]: 0.06 µg/mL (≈ 0.0553 µM)
- ED50 A431 [9]: 0.09 µg/mL (≈ 0.0829 µM)
- ED50 LU-1 [10]: 0.2 µg/mL (≈ 0.184 µM)
- ED50 BC-1 [11]: 0.3 µg/mL (≈ 0.276 µM)

Structure (SMILES): Cc1c2ccncc2c(C)c2c1[nH]c1ccccc12 [Ellipticine]
- IC50 ([1]; Homo sapiens, MEL2, 72 h, read-out: ED50 MEL-2): 0.9 µg/mL (≈ 3.65 µM)
- IC50 ([3]; Homo sapiens, ZR-75-1, 72 h, read-out: ED50 ZR 75-1): 0.9 µg/mL (≈ 3.65 µM)
- IC50 ([4]; Homo sapiens, 72 h, read-out: ED50 KB): 0.04 µg/mL (≈ 0.162 µM)
- IC50 ([5]; Homo sapiens, HT-1080, 72 h, read-out: ED50 HT-1080): 1.8 µg/mL (≈ 7.31 µM)
- IC50 ([6]; Homo sapiens, U373 MG, 72 h, read-out: ED50 U373): 1.6 µg/mL (≈ 6.5 µM)
- IC50 ([7]; Homo sapiens, LNCaP, 72 h, read-out: ED50 LNCaP): 0.8 µg/mL (≈ 3.25 µM)
- IC50 ([8]; Homo sapiens, Col2, 72 h, read-out: ED50 COL-2): 0.3 µg/mL (≈ 1.22 µM)
- IC50 ([9]; Homo sapiens, A-431, 72 h, read-out: ED50 A431): 0.5 µg/mL (≈ 2.03 µM)
- IC50 ([10]; Homo sapiens, 72 h, read-out: ED50 LU-1): 0.02 µg/mL (≈ 0.0812 µM)
- IC50 ([11]; Homo sapiens, 72 h, read-out: ED50 BC-1): 0.2 µg/mL (≈ 0.812 µM)
- cytotoxic activity profile, cell-type selectivity [12]: relatively intense, nonselective cytotoxic activity
